From patent US9556417B2, “Reprogramming of cells to a new fate” (The Scripps Research Institute, priority 2010, dated 2017) come the findings set out here.

The subject of assay [1] is spontaneously contracting colonies (transdifferentiated cardiomyocytes). Nature of the assay: Calcium imaging and testing of chronotropic agents. It counts as cell-based, mouse. As to conditions: 1 μM isoproterenol or 10 μM carbachol; 10 minutes after addition. On the procedure: Cells were loaded with Fluo-4-AM (5 μM, 30 min, 37° C.) (F14201, Invitrogen), and imaged with an Olympus Fluoview 1000 inverted confocal microscope with a 40× oil immersion lens (numerical aperture 1.3). Line scan imaging mode was used to measure spontaneous Ca2^+ transients at 37° C. Image processing and data analysis were performed as previously described (Ouyang, K. et al., J Biol Chem 280, 15898-902 (2005)). For drug testing, all measurements were repeated 10 minutes after the addition of isoproterenol (1 μM; Sigma) or Carbachol (10 μM; Sigma-Aldrich).

The test system of assay [2] is R1 ES cells. Nature of the assay: Serum-free monolayer cardiac differentiation of ES cells, beating colonies. It counts as cell-based, mouse. As to conditions: early treatment window. On the procedure:
Having identified the first serum-free monolayer condition for cardiac differentiation of ES cells, we sought to test its efficacy as a platform to discover regulators of cardiomyogenesis. A collection of approximately 200 small molecules and growth factors reported to be influential in developmental processes were assembled. R1 ES cells were grown and plated for differentiation on Matrigel in 24-well plates using the media and growth factors described above. The screening collection was then added and removed from each well at specific time points in order to account for different developmental time windows. The collection was screened at days 0-2, 2-5, and 5-7.
(§1) Cells are plated at a density of 200,000 cells/well of a 6-well plate in 2.5 ml of ESGM. 6-well plates are coated overnight at 4° C. with 1 ml of Matrigel (BD Bioscience) diluted 50× from stock concentration. 24 hours after plating, or after sufficient colony size was achieved, cells are switched into chemically defined medium (CDM) and treated with 4 uM BIO (Calbiochem) and 20 ng/ml BMP-4 (R&D). CDM contains RPMI 1640, 0.5×N2, 1×B27 (without Vitamin A), 0.5× Glutamax, 0.55 mM beta-mercaptoethanol, 1× non-essential amino acids, 1× nucleosides. At Day 2, medium is changed, and again CDM containing 4 uM BIO with 20 ng/ml BMP-4 is added to the cells. At Day 5, cells are washed once with PBS and medium is changed to CDM containing 100 ng/ml Dkk-1 (R&D). At Day 7, medium is changed, and again CDM containing 100 ng/ml Dkk-1 is added to the cells. At Day 10, cells are trypsinized (0.05% trypsin) (Approximately 5 minutes at 37° C., or until cells begin to detach) and replated onto gelatin coated 6-well plates in CDM with no additional growth factors. By this time, the cells will have formed tight colonies that will be difficult to disrupt (Supplementary FIG. 2b). […] The trypsin is used primarily to detach the cells rather than to dissociate them to a single cell suspension. It is preferable for the colonies to remain intact. The trypsin is briefly quenched with MEF media, cells are centrifuged, and resuspended in CDM for plating. Medium is refreshed as needed to remove dead cells and debris (every 1 to 2 days).

For assay [3], the system named is R1 ES cells. Nature of the assay: QRT-PCR of markers in differentiating ES cells. The note with it: treated day 0-2, harvested day 4.5. It counts as cell-based, mouse. The procedure: To further analyze the mechanism of action of the cardiogenic effect seen with these molecules, QRT-PCR was carried out on cells treated from day 0-2 and harvested at day 4.5.
QRT-PCR was carried out to observe the induction of cardiomyogenesis at the transcript level. At day 5, when A83-01 treatment begins, the predominant state is that of a developed primitive streak type population that is yet to display robust expression of markers of cardiac precursors such as Nkx2.5, Isl-1, and c-kit.
Total RNA from each sample was prepared from 5×10^4 cells using RNeasy mini kit (Qiagen). Reverse transcription was carried out by using Reverse Transcription System (Promega) and PCR performed using PCR Super Mix (Invitrogen).

In assay [4] the test system is mouse embryonic fibroblasts (MEFs). As to the kind of experiment: Direct cardiac reprogramming of fibroblasts, contracting patch/colony counts. It counts as cell-based. The source says:
Having successfully initiated the early cardiogenic program in MEFs, we next sought to induce robust activation of mid-stage cardiac gene expression and to ultimately generate spontaneously contracting patches of cardiac cells, a hallmark of terminal differentiation that is easily observed and quantified. To this end, we treated three-factor transduced MEFs with chemically defined media (CDM) as well as cytokines and small molecules that might enhance cardiogenesis by regulating TGFβ, bone morphogenetic protein (BMP), Hedgehog, Wnt, or Notch pathway activity. Treatments were done individually and in combination, and at different times during the reprogramming process. Despite the general unsuitability of the resulting protocol for iPSC generation, we also explored whether small-molecule inhibition of JAK-STAT (Janus kinase-signal transducer and activator of transcription), PI3K (phosphatidylinositol 3-kinase), or Wnt signalling during the early stages of the protocol might boost the effectiveness of cardiomyogenesis by preventing even a small number of iPSC intermediates from forming. Finally, we experimented with a more gradual transition between different media by lowering FBS concentration step-wise in increments of 1-4% over 3-6 days (immediately prior to switching to CDM). […] During this initial nine-day period, the small-molecule JAK inhibitor JD is continuously kept in the media at a concentration of 0.5 μM. From day nine onwards, the cells are cultured in CDM, with the cardioinductive growth factor BMP4 (Snyder, A. et al., J Cell Biochem 93, 224-32 (2004)) being added at 20 ng/ml for the first five days (FIG. 1b).
All MEFs (129S2/SvPasCrlf) were derived according to WiCell protocols (https://www.wicell.org/index.php?option=com_docman&task=doc_download&gid=687). TTFs were a kind gift of Dr. Hans Schöler. Secondary MEFs were derived as previously described (Wernig, M. et al., Nat Biotechnol 26, 916-24 (2008)). All results were initially obtained and confirmed with the Nebulette-LacZ MEFs; to ensure reproducibility and minimize inter-experimental variation, reported results almost exclusively derive from experiments utilizing secondary dox-inducible MEFs using the optimum induction period. MEFs were initially passaged on gelatin-coated (0.1% for 2 hours at 37° C.) tissue culture dishes in DMEM supplemented with 10% FBS, 2 mM Glutamax and 0.1 mM NEAA (all components from Invitrogen, Carlsbad, Calif.). Prior to viral transduction, cells were seeded onto Matrigel (BD Biosciences, Franklin Lakes, N.J.) or Geltrex (Invitrogen)-coated plates (1:40, overnight at 4° C.) at 3.5×10^4 cells per well of a six well plate (7×10^4 cells for TTFs) in the same media. […]

Another assay has as its system R1 mESCs. Nature of the assay: Serum-free monolayer cardiac differentiation of ES cells, αMHC immunostaining at day 10. The format is cell-based, mouse.
Description: While cellular differentiation is a fluid process, its study can be simplified by defining stages of differentiation. In order to identify conditions conducive to cardiomyocyte differentiation, we employed a matrix strategy in which cells were differentiated for 10 days encompassing 4 treatment windows (followed by a period of maturation in the final procedure). The stages identified for the current study were mesendoderm, mesoderm, cardiac precursor, early cardiomyocyte, and mature cardiomyocyte. Shown in FIG. 24 is a schematic representing the transition from ES cells to cardiomyocytes, including markers for each cell type defined and the treatments used to stimulate each transition.
We began by identifying a minimal serum-free condition in which approximately 1% of cells would express αMHC (alpha-myosin heavy chain) after 10 days of culture. Combinations of medium components and plate coatings were tested in parallel, with the most permissive and consistent condition being a modified chemically defined N2/B27 medium on Matrigel coated plates (see Methods). Prior to differentiation, ES cells were maintained in a pluripotent state on MEFs and with LIF. At day −1, the cells were trypsinized and replated on Matrigel coated plates in LIF supplemented medium, allowing for better cell survival and more robust initial colony formation. In one day, a sufficient colony size is achieved allowing survival in serum-free medium (FIG. 25).
From a literature search, we identified growth factors, cytokines and small molecules reported to influence cardiac differentiation, such as activators and inhibitors of BMP, TGF-β/Nodal, Hedgehog, Wnt, and Notch pathways and tested each for their ability to induce cardiomyogenesis at each time window. For example, to test Dkk-1 in the second window, cells were in basal medium for days 0-2, treated with Dkk-1 for days 2-5, then cultured in basal medium until day 10 before immunofluorescence scoring. Positive regulators of cardiac specification at each stage were therefore identified by their ability to induce alpha-myosin heavy chain (αMHC) expression at day 10, as assessed by immunostaining.
as §1
Cells were fixed in 4% paraformaldehyde (Sigma) for 15 minutes, and stained in 0.3% Triton (Sigma) containing 5% donkey serum (Jackson ImunoResearch). Antibodies were used at dilutions of MF20 [Developmental Studies Hybridoma Bank (DSHB)] […]

Regarding `C[N+](C)(C)CCOC(N)=O` [carbachol], in assay [1], the “decay period (τ) of calcium transients” value is reported as “opposite effects” and the “frequency of spontaneous calcium transients” value is recorded as “opposite effects”.

For the molecule `CC(C)NCC(O)c1ccc(O)c(O)c1` (stereo not shown) [isoproterenol], in assay [1], the “decay period (τ) of calcium transients” value is “shortened” and the “frequency of spontaneous calcium transients” value is “significantly increased”. Also, in the assay with R1 ES cells [2], the “cardiac differentiation / percentage of beating colonies” value is “even more potent cardiac inducing effect than BayK 8644”. Moreover, in the assay on R1 ES cells [3], the “expression of Brachyury T, Flk-1, GATA-4 and MESP1” value was “increased”.

B1: BMP4: cardioinductive growth factor, member of the TGF-β superfamily (protein, UniProt P12644 293-408, looked up)
Bone morphogenetic protein 4: SPKHHSQRARKKNKNCRRHSLYVDFSDVGWNDWIVAPPGYQAFYCHGDCPFPLADHLNSTNHAIVQTLVNSVNSSIPKACCVPTELSAISMLYLDEYDKVVLKNYQEMVVEGCGCR
Take B1: the “contracting patches per 100,000 MEFs plated (mean)” value in assay [4] (n=6, JI1 0.5 μM first nine days, BMP4 20 ng/ml five days) is 149±13 patches per 100,000 MEFs plated. In addition, the “increase in formation of contracting patches” value in assay [4] (three-factor transduced MEFs, BMP4 20 ng/ml for first five days in CDM) is given as approximately 150 fold. In addition, in the assay with R1 mESCs (first and/or second treatment windows), the optimal concentration was 20 ng/mL. Also, the “cells staining for αMHC” value in the assay on R1 mESCs (treatment in the first window, day 10) is reported as “approximately 20%”.
